The assay concerns the target T1, Ring1A (Homo sapiens, UniProt Q06587).
T1 construct: gene RING1; recombinant GST fusion of Ring1A (N-terminal HA tag, C-terminal six-histidine tag) in complex with GST-Bmi1, from E. coli; with Bmi1
T1 sequence (Q06587 1-406): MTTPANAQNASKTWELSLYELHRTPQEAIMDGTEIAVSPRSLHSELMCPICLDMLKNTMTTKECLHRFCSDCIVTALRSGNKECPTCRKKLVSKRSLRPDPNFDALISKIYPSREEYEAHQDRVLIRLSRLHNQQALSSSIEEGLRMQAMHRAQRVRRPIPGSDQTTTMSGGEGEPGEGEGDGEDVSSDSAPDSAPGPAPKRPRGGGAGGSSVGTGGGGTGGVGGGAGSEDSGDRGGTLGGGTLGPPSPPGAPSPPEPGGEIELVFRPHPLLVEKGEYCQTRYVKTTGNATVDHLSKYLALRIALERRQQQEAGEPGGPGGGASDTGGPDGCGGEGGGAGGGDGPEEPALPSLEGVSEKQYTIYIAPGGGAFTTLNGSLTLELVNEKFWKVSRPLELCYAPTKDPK
T1 sequence (P35226 1-326 partner): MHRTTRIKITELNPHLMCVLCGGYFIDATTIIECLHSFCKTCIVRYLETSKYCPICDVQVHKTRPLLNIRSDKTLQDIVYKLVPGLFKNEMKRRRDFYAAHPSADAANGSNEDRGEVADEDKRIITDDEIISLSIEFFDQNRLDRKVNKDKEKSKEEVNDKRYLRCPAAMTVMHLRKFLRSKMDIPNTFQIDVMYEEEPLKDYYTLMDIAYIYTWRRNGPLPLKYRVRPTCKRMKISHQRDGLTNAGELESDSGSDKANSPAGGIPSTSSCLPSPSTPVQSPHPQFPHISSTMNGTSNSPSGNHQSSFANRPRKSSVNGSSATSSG
Briefly: cell-free HTRF ubiquitination assay (E1, UbcH5a, Flag-ubiquitin), confirmed by gel-based Western blot. Format: biochemical.

`O=C1C(=Cc2cccnc2)C(=O)c2ccccc21` [PRT4165] gave a half-inhibitory concentration (IC50) of 3.9 µM.

Source of the values: article PMC2779455, “The E3 Ubiquitin-Ligase Bmi1/Ring1A Controls the Proteasomal Degradation of Top2α Cleavage Complex – A Potentially New Drug Target” (PLoS ONE, 2009).
